Values quoted from earlier work, collected in patent US20080305186A1, “Method and Composition for the Treatment of Cardiac Hypertrophy” (BOARD OF REGENTS, THE UNIVERSITY OF TEXAS SYSTEM, priority 2007, published 2008).

Columns and labels:
[1] = system: isoproterenol-, angiotensin II- and aortic banding induced cardiac hypertrophy; details: cited from earlier work
Histone Deacetylase = details: cited from earlier work

SMILES: CCCC(CCC)C(=O)O [valproic acid]
- attenuation of cardiac hypertrophy [1]: attenuate
- inhibition of Histone Deacetylase (HDAC) (Histone Deacetylase): inhibit HDAC
